Laboratory results published in US20240368122A1, “JAK2 INHIBITORS AND METHODS OF USE THEREOF” (RELAY THERAPEUTICS, INC., priority 2021, published 2024).
Read-outs that look alike come from different tables or passages of the source.

Key:
JAK2 JH1 WT (T842-G1132) = target: T1, JAK2 JH1 WT (T842-G1132) (Homo sapiens, UniProt O60674); experiment: Surface Plasmon Resonance (SPR) binding assay, JAK2 JH1 domain; settings: SPR, JAK2 JH1 domain
T1 construct: *JAK2 JH1 WT (T842-G1132) N-His60-avi-TEV; His6 (N); TEV cleavage site (N); purchased Biortus
Experimental: Selected compounds of the present disclosure were tested in a Surface Plasmon Resonance (SPR) Assay to measure their binding kinetics and affinity for proteins of interest.
Prepare buffer: 50 mM HEPES pH 7.5, 150 mM NaCl, 0.05% (v/v) Tween, and 10% (v/v) glycerol were combined and pH was adjusted to 7.5, then filtered. 5 mM DTT, was added, and buffer without DMSO was reserved for compound resuspension. 2% (v/v) DMSO was added for assay buffer, and separately 1% DMSO was used to make buffer for resuspending compounds.
Prepare compounds: Using a Bravo liquid handler, 99 μL of 1% (v/v) DMSO assay buffer was added to 1 μL compounds in DMSO.
Run 8K Method: Biotin CAPture (CAP) chip surface was regenerated prior to run by: Inserting CAP chip into Biacore 8K, prime machine with assay buffer with 2% (v/v) DMSO; Setting instrument temperature to 20° C.; Conditioning surface with NaOH/GdnHCl reagents from CAP chip kit (60 seconds, 10 μL/min); and Capturing oligo-Streptavidin (SA) reagent from CAP kit (600 seconds, 1 μL/min), expected capture ˜2500 RU. JAK2 JH1 or JH2 protein was immobilized by preparing a sample of 0.5 uM JH1 or 0.4 uM JH2 protein diluted in assay buffer without DMSO and supplemented with 10 uM of a selected compound of the invention as a stabilizer (370 seconds, 5 uL/min), expected capture ˜1000 RU. Remaining biotin sites on SA were blocked with 1 uM biotin (30 seconds, 20 uL/min), then equilibrated for 1800 seconds at 100 uL/min. Compounds being assayed were run in single cycle kinetics: 4 doses with a top concentration of 5 uM (JH1) or 500 nM (JH2), dilution factor of 3, at 20° C., for a contact time of 60 seconds, and a dissociation time of 300 seconds (JH1) or 1200 seconds (JH2), at a flow rate of 30 uL/min. The surface was completely regenerated after each compound is run, and JH1 or JH2 protein was immobilized fresh prior to each new compound. Data were fitted kinetically with 1:1 binding model using Biacore Insight Evaluation Software.

[1] = target: T2, JAK2 JH2 WT (V536-D812) [W659A, W777A, F794H solubilizing mutations] (Homo sapiens, UniProt O60674, F794H/W659A/W777A); experiment: Surface Plasmon Resonance (SPR) binding assay, JAK2 JH2 domain; settings: SPR, JAK2 JH2 domain
T2 construct: **JAK2 JH2 WT (V536-D812) [W659A, W777A, F794H solubilizing mutations]; C-thrombin-avi-His6; thrombin cleavage site (C); His6 (C); purchased Biortus
How it was run: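 Kinetics came from 1:1 fits of single-cycle runs at 20 °C: four 3-fold dilutions from 5 uM for JH1 or 500 nM for JH2, 60 s association, and 300 s or 1200 s dissociation respectively. Protein was freshly captured per compound in the presence of 10 uM stabilizer compound, with running buffer of pH 7.5 HEPES/NaCl/glycerol/DTT plus 2% DMSO.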

[2] = test system: TF1 JAK2 V617F STAT5 reporter; experiment: Cellular TF1 STAT5 assay (luciferase reporter), JAK2 V617F; format: cell-based; settings: read-out: Cell PD TF1 V617F STAT5 (IC50)
How it was run: (§1)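 Measured in TF1 cells with mutant JAK2 V617F and STAT-responsive luciferase: 18-20 h compound exposure at 37 °C, then ONE-glo luminescence.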

[3] = test system: TF1 JAK2 V617F STAT3 reporter; experiment: Cellular TF1 STAT3 assay (luciferase reporter), JAK2 V617F; format: cell-based; settings: read-out: Cell PD-TF1 JAK2 V617F STAT3 (IC50)
How it was run: as §1

[4] = Homo sapiens, TF-1, TF1 cells, JAK2 V617F

T1 sequence (O60674 842-1132): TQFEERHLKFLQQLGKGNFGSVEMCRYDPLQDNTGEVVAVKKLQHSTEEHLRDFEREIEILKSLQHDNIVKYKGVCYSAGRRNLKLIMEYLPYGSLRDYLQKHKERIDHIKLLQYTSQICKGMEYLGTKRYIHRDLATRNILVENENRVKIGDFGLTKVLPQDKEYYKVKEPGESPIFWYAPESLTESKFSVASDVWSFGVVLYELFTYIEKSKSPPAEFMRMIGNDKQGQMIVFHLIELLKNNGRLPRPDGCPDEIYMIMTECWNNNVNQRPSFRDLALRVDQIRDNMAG
T2 sequence (O60674 536-812 W659A/W777A/F794H): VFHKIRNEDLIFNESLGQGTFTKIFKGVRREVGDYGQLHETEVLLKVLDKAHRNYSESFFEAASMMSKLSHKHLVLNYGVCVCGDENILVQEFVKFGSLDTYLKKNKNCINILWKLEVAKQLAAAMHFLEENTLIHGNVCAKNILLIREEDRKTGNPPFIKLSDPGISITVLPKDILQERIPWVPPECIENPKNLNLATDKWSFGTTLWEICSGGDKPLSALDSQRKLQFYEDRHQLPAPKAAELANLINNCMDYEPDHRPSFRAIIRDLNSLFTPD

Row | Compound | Kd (JAK2 JH1 WT (T842-G1132)) | Kd [1] | IC50 ([2]; TF1 JAK2 V617F) | IC50 ([3]; TF1 JAK2 V617F) | IC50 [2, 4] | IC50 [3, 4]
1 | CNC(=O)c1nnc(NC(=O)C2CC2)cc1Nc1cccc(-c2ccc(C(=O)NCc3cccn(C)c3=O)cc2)c1OC [Compound 1] | 500 to 5000 nM | 0.01 to 10 nM | 500 to 5000 nM | 500 to 5000 nM | – | –
2 | CNC(=O)c1nnc(NC(=O)C2CC2)cc1Nc1cccc(-c2ccc(C(=O)N(C)Cc3cccn(C)c3=O)cc2)c1OC [Compound 3, 6-(cyclopropanecarboxamido)-4-((2-methoxy-4′-(methyl((1-methyl-2-oxo-1,2-dihydropyridin-3-yl)methyl)carbamoyl)-[1,1′-biphenyl]-3-yl)amino)-N-methylpyridazine-3-carboxamide] | 5000 to 100000 nM | 0.01 to 10 nM | 500 to 5000 nM | 500 to 5000 nM | – | –
3 | CNC(=O)c1nnc(NC(=O)C2CC2)cc1Nc1cccc(-c2ccc(C(=O)NCc3cccn(C)c3=O)nc2)c1OC [Compound 4] | 5000 to 100000 nM | 0.01 to 10 nM | 500 to 5000 nM | 500 to 5000 nM | – | –
4 | CNC(=O)c1nnc(NC(=O)C2CC2)cc1Nc1cccc(-c2ncc(NC(=O)Cc3cccn(C)c3=O)cn2)c1OC [Compound 6] | 500 to 5000 nM | 0.01 to 10 nM | 5000 to 100000 nM | 5000 to 100000 nM | – | –
5 | CNC(=O)c1nnc(NC(=O)C2CC2)cc1Nc1cccc(-c2ccc(C(=O)NCc3cccn(C)c3=O)nn2)c1OC [Compound 8] | 5000 to 100000 nM | 0.01 to 10 nM | 5000 to 100000 nM | 500 to 5000 nM | – | –
6 | CNC(=O)c1nnc(NC(=O)C2CC2)cc1Nc1cccc(-c2cnc(C(=O)NCc3cccn(C)c3=O)nc2)c1OC [Compound 9] | 500 to 5000 nM | 0.01 to 10 nM | 5000 to 100000 nM | 500 to 5000 nM | – | –
7 | CNC(=O)c1nnc(NC(=O)C2CC2)cc1Nc1cccc(-c2ccc(C(=O)NCc3cccn(C)c3=O)c(C)c2)c1OC [Compound 10] | 5000 to 100000 nM | 0.01 to 10 nM | 500 to 5000 nM | 500 to 5000 nM | – | –
8 | CNC(=O)c1nnc(NC(=O)C2CC2)cc1Nc1cccc(-c2ccc(C(=O)N(C)Cc3cc(C#N)ccn3)cc2)c1OC [Compound 11] | 5000 to 100000 nM | 0.01 to 10 nM | 500 to 5000 nM | 500 to 5000 nM | – | –
9 | CNC(=O)c1nnc(NC(=O)C2CC2)cc1Nc1cccc(-c2cnc(C(=O)N(C)Cc3cc(C#N)ccn3)c(F)c2)c1OC [Compound 28] | 5000 to 100000 nM | 0.01 to 10 nM | 50 to 500 nM | 50 to 500 nM | – | –
10 | CNC(=O)c1nnc(NC(=O)C2CC2)cc1Nc1cccc(-c2cnc(C(=O)N(C)Cc3cc(C#N)ccn3)cc2C)c1OC [Compound 32] | 5000 to 100000 nM | 0.01 to 10 nM | 500 to 5000 nM | 500 to 5000 nM | – | –
11 | CNC(=O)c1nnc(NC(=O)C2CC2)cc1Nc1cccc(-c2ccc(C(=O)N(C)Cc3cc(C#N)ccn3)nn2)c1OC [Compound 35] | 5000 to 100000 nM | 0.01 to 10 nM | 500 to 5000 nM | 50 to 500 nM | – | –
12 | CNC(=O)c1nnc(NC(=O)C2CC2)cc1Nc1cccc(-c2cnc(C(=O)N(C)Cc3cc(C#N)ccn3)nc2)c1OC [Compound 36] | 5000 to 100000 nM | 0.01 to 10 nM | 50 to 500 nM | 50 to 500 nM | – | –
13 | CNC(=O)c1nnc(NC(=O)C2CC2)cc1Nc1cccc(-c2cnc(C(=O)N(C)Cc3cc(C#N)ccn3)cn2)c1OC [Compound 37] | 5000 to 100000 nM | 0.01 to 10 nM | 50 to 500 nM | 50 to 500 nM | – | –
14 | CNC(=O)c1nnc(NC(=O)C2CC2)cc1Nc1cccc(-c2cnn(C3CN(Cc4ccccn4)C3)c2)c1OC [Compound 39] | 500 to 5000 nM | 0.01 to 10 nM | 50 to 500 nM | 50 to 500 nM | – | –
15 | CNC(=O)c1nnc(NC(=O)C2CC2)cc1Nc1cccc(-c2cnn(C3CN(Cc4ccn(C)n4)C3)c2)c1OC [Compound 41] | 500 to 5000 nM | 0.01 to 10 nM | 50 to 500 nM | 50 to 500 nM | – | –
16 | CNC(=O)c1nnc(NC(=O)C2CC2)cc1Nc1cccc(-c2cnn(C3CN(Cc4cnn(C)c4)C3)c2)c1OC [Compound 44] | 500 to 5000 nM | 0.01 to 10 nM | 500 to 5000 nM | 500 to 5000 nM | – | –
17 | CNC(=O)c1nnc(NC(=O)C2CC2)cc1Nc1cccc(-c2cnc(C(=O)N(C)Cc3cccnn3)c(F)c2)c1OC [Compound 48] | 5000 to 100000 nM | 0.01 to 10 nM | 500 to 5000 nM | 500 to 5000 nM | – | –
18 | CNC(=O)c1nnc(NC(=O)C2CC2)cc1Nc1cccc(-c2ccc(C(=O)N(C)Cc3cc(C#N)ccn3)cn2)c1OC [Compound 55] | 5000 to 100000 nM | 0.01 to 10 nM | 500 to 5000 nM | 500 to 5000 nM | – | –
19 | CNC(=O)c1nnc(NC(=O)C2CC2)cc1Nc1cccc(-c2cnn(C3CN(Cc4cc(C#N)ccn4)C3)c2)c1OC [Compound 66] | 5000 to 100000 nM | 0.01 to 10 nM | 500 to 5000 nM | 50 to 500 nM | – | –
20 | CNC(=O)c1nnc(NC(=O)C2CC2)cc1Nc1ccc(C)c(-c2cnn(C3CN(Cc4cc(C#N)ccn4)C3)c2)c1OC [Compound 68] | 5000 to 100000 nM | 0.01 to 10 nM | 500 to 5000 nM | 500 to 5000 nM | – | –
21 | [2H]C([2H])(c1cccc(C#N)n1)N1CC(n2cc(-c3cccc(Nc4cc(NC(=O)C5CC5)nnc4C(=O)NC)c3OC)cn2)C1 [Compound 409] | – | 0.01 to 10 nM | – | – | 50 to 500 nM | 50 to 500 nM

Now from value to compound:

Row | Kd (JAK2 JH1 WT (T842-G1132)) | Kd [1] | IC50 ([2]; TF1 JAK2 V617F) | IC50 ([3]; TF1 JAK2 V617F) | IC50 [2, 4] | IC50 [3, 4] | Compound
22 | 5000 to 100000 nM | 0.01 to 10 nM | 50 to 500 nM | 50 to 500 nM | – | – | CNC(=O)c1nnc(NC(=O)C2CC2)cc1Nc1cccc(-c2ccc(C(=O)N(C)Cc3cnn(C)c3)nc2)c1OC [Compound 17]
23 | 5000 to 100000 nM | 0.01 to 10 nM | 50 to 500 nM | 50 to 500 nM | – | – | CNC(=O)c1nnc(NC(=O)C2CC2)cc1Nc1cccc(-c2ccc(C(=O)N(C)Cc3cc(C#N)ccn3)nc2)c1OC [Compound 18]
24 | 5000 to 100000 nM | 0.01 to 10 nM | 50 to 500 nM | 50 to 500 nM | – | – | CNC(=O)c1nnc(NC(=O)C2CC2)cc1Nc1cccc(-c2ccc(C(=O)N(C)Cc3ccn(C)n3)nc2)c1OC [Compound 26]
25 | 5000 to 100000 nM | 0.01 to 10 nM | 50 to 500 nM | 50 to 500 nM | – | – | CNC(=O)c1nnc(NC(=O)C2CC2)cc1Nc1cccc(-c2ccc(C(=O)N(C)Cc3cccnc3)nc2)c1OC [Compound 30]
26 | 5000 to 100000 nM | 0.01 to 10 nM | 10 to 50 nM | 10 to 50 nM | – | – | CNC(=O)c1nnc(NC(=O)C2CC2)cc1Nc1ccc(C)c(-c2ccc(C(=O)N(C)Cc3cc(C#N)ccn3)nc2)c1OC [Compound 33]
27 | 5000 to 100000 nM | 0.01 to 10 nM | 50 to 500 nM | 50 to 500 nM | – | – | CNC(=O)c1nnc(NC(=O)C2CC2)cc1Nc1ccc(C)c(-c2ccc(C(=O)N(C)Cc3ccn(C)n3)nc2)c1OC [Compound 34]
28 | 5000 to 100000 nM | 0.01 to 10 nM | 500 to 5000 nM | 500 to 5000 nM | – | – | CNC(=O)c1nnc(NC(=O)C2CC2)cc1Nc1cccc(-c2ccc(C(=O)N(C)Cc3ccnn3C)nc2)c1OC [Compound 40]
29 | 5000 to 100000 nM | 0.01 to 10 nM | 50 to 500 nM | 50 to 500 nM | – | – | CNC(=O)c1nnc(NC(=O)C2CC2)cc1Nc1ccc(C)c(-c2cnc(C(=O)N(C)Cc3cc(C#N)ccn3)c(F)c2)c1OC [Compound 42]
30 | 5000 to 100000 nM | 0.01 to 10 nM | 500 to 5000 nM | 500 to 5000 nM | – | – | CNC(=O)c1nnc(NC(=O)C2CC2)cc1Nc1ccc(C)c(-c2cnc(C(=O)N(C)Cc3ccccn3)c(F)c2)c1OC [Compound 43]
31 | 5000 to 100000 nM | 0.01 to 10 nM | 50 to 500 nM | 50 to 500 nM | – | – | [2H]C([2H])([2H])NC(=O)c1nnc(NC(=O)C2CC2)cc1Nc1cccc(-c2ccc(C(=O)N(C)Cc3cc(C#N)ccn3)nc2)c1OC [Compound 61]
